Source: PubChem BioAssay AID1963850 (Molecular Pharmacology Branch, DTP, NCI, 2024)

Tested on: 192522-019-R-J2-PDC complex tumor spheroid viability
Assay: Anticancer human tumor 192522-019-R-J2-PDC patient-derived colon adenocarcinoma cell line growth inhibition [POLQ]
Conditions: for IC50: curve of first compound; for viability, T/C: stronger effect = lower value
Description: Multicellular complex tumor spheroid response to Polymerase (POL) inhibitors (novobiocin, ART-558, RP6685) in combination with a variety of drugs and investigational agents in selected tumor cell lines
The POL inhibitors (novobiocin, ART-558, and RP6685) were evaluated both individually and in combination with standard of care and investigational anticancer small molecules within a complex spheroid model of solid tumors. . Complex spheroids include a stromal component modeled by human endothelial cells (HUVEC) and fibroblasts modeled by human mesenchymal stem cells (MSCs). The concentration ranges selected for each drug and investigational agent were based upon clinically achievable concentrations if the clinical Cmax of the agent was known.
Compounds. The drugs and investigational agents: novobiocin (NSC847541), ART-558 (NSC835418), RP-6685 (NSC848927), peposertib (NSC802822), ceralasertib (NSC780249), elimusertib (NSC800525), camonsertib (NSC841442), AZD-1390 (NSC803789), olaparib (NSC753686), talazoparib (NSC767125), rucaparib (NSC756644), sotorasib (NSC818433), MRTX-1133 (NSC836407), SN-38 (NSC673596), topotecan (NSC609699), epotoside (NSC141540), doxorubicin (NSC123127), gemcitabine (NSC613327), 5-fluorouracil (NSC19893), paclitaxel (NSC125973), vemurafenib (NSC761431), MSA-2 (NSC828583), SN-011 (NSC837082), adavosertib (NSC754352), prexasertib (NSC758257), carboplatin (NSC241240) and oxaliplatin (NSC266046), were obtained from the National Cancer Institute (NCI) Developmental Therapeutics Program Chemical Repository (21). The FDA-approved anticancer drug set is available from the Developmental Therapeutics Program at https://dtp.cancer.gov/organization/dscb/obtaining/. […] The stock solutions were prepared in dimethyl sulfoxide (DMSO, Sigma-Aldrich, St. Louis, MO, cat. D2650), except for the platinum compounds which were prepared in saline (Quality Biological, Gaithersburg, MD, cat. 114-055-101), at 800-fold the tested concentration and stored at -70 degrees C prior to their use. All drugs and investigational agents were tested over a range starting from a high concentration at or near the clinical Cmax and decreasing in half-log increments. If the clinical Cmax for an agent had not been determined, the highest concentration tested was 10 microM, except for SN-38, which was tested at a high concentration of 1 microM.
Cell Culture. All cells were maintained in an incubator at 37 degrees C and 5% CO2 with 95% humidity. The PDC lines were cultured according to standard operating procedures established by the NCI PDMR (https://pdmr.cancer.gov). Table 3 of the manuscript, lists the cell lines along with the number of the three cell types plated to form the mct-spheroids and media for tumor cell growth. After thawing, all PDC lines, except 997537-175-T-J1-PDC and 415267-285-R-J2-PDC, were cultured in Matrigel-coated flasks prepared with a working solution of 1X Ham's F-12 nutrient mix, without supplementation (Thermo Fisher Scientific, cat. 11765054), 100 U/mL penicillin-streptomycin (Thermo Fisher Scientific, cat. 15140122), and 2.5% Matrigel (Corning Inc., Corning, NY, cat. 354248) for the first three passages. The two PDC lines 997537-175-T-J1-PDC and 415267-285-R-J2-PDC were cultured on uncoated flasks. The 857933-349-R-J2-PDC line was cultured in 6C/Colon 1B media containing advanced DMEM/F-12 (Thermo Fisher Scientific, cat. 12634028), 10 mM HEPES (Thermo Fisher Scientific, cat. 15630080), 1X GlutaMAX supplement (Thermo Fisher Scientific, cat. 35050061), 0.1 mg/mL primocin (InvivoGen, San Diego, CA, cat. ant-pm-2), 10% defined fetal bovine serum, heat inactivated (HyClone Laboratories Inc., Logan, UT, cat. SH30070.03HI), 50% L-WRN conditioned media (ATCC, cat. CRL-3276), 1.25 mM N-Acetyl-L-cysteine (Sigma-Aldrich, cat. A9165), 10 mM nicotinamide (Sigma-Aldrich, cat. N0636), 1X B-27 supplement (Thermo Fisher Scientific, cat. 17504044), 1X N-2 supplement (Thermo Fisher Scientific, cat. […]

[1] = second compound 0.0316 µM, first compound 0.0316 µM
[2] = second compound 0.0316 µM, first compound 0.1 µM
[3] = second compound 0.0316 µM, first compound 0.316 µM
[4] = second compound 0.0316 µM, first compound 1 µM
[5] = second compound 0.0316 µM, first compound 3.16 µM
[6] = second compound 0.0316 µM, first compound 10 µM
[7] = second compound 0.1 µM, first compound 0.0316 µM
[8] = second compound 0.1 µM, first compound 0.1 µM
[9] = second compound 0.1 µM, first compound 0.316 µM
[10] = second compound 0.1 µM, first compound 1 µM
[11] = second compound 0.1 µM, first compound 3.16 µM
[12] = second compound 0.1 µM, first compound 10 µM
[13] = second compound 0.316 µM, first compound 0.0316 µM
[14] = second compound 0.316 µM, first compound 0.1 µM
[15] = second compound 0.316 µM, first compound 0.316 µM
[16] = second compound 0.316 µM, first compound 1 µM
[17] = second compound 0.316 µM, first compound 3.16 µM
[18] = second compound 0.316 µM, first compound 10 µM
[19] = second compound 1 µM, first compound 0.0316 µM
[20] = second compound 1 µM, first compound 0.1 µM
[21] = second compound 1 µM, first compound 0.316 µM
[22] = second compound 1 µM, first compound 1 µM
[23] = second compound 1 µM, first compound 3.16 µM
[24] = second compound 1 µM, first compound 10 µM
[25] = second compound 3.16 µM, first compound 0.0316 µM
[26] = second compound 3.16 µM, first compound 0.1 µM
[27] = second compound 3.16 µM, first compound 0.316 µM
[28] = second compound 3.16 µM, first compound 1 µM
[29] = second compound 3.16 µM, first compound 3.16 µM
[30] = second compound 3.16 µM, first compound 10 µM
[31] = second compound 10 µM, first compound 0.0316 µM
[32] = second compound 10 µM, first compound 0.1 µM
[33] = second compound 10 µM, first compound 0.316 µM
[34] = second compound 10 µM, first compound 1 µM
[35] = second compound 10 µM, first compound 3.16 µM
[36] = second compound 10 µM, first compound 10 µM
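Note: spheroids exposed to drugs for seven days before reading.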
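Throughout, for viability, T/C: 100% = DMSO vehicle control viability in luminescence.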

SMILES: CCc1cc2c(N3CCc4c(cc(Cn5ccnc5)cc4-c4cn(C)nc4C(F)(F)F)C3=O)cc(C)nc2c(OC)n1 + Cc1cccc(N(C)C(=O)C2C(O)CCN2c2nc(C)cc(C(F)(F)F)c2C#N)c1
- IC50 (second compound 0.0316 µM): > 10 µM
- IC50 (second compound 0.1 µM): > 10 µM
- IC50 (second compound 0.316 µM): > 10 µM
- IC50 (second compound 1 µM): > 10 µM
- IC50 (second compound 3.16 µM): > 10 µM
- IC50 (second compound 10 µM): > 10 µM
- viability, T/C [1]: 116%
- viability, T/C [2]: 91.1%
- viability, T/C [3]: 83.4%
- viability, T/C [4]: 87.9%
- viability, T/C [5]: 72.2%
- viability, T/C [6]: 68.1%
- viability, T/C [7]: 99.3%
- viability, T/C [8]: 99.4%
- viability, T/C [9]: 88.1%
- viability, T/C [10]: 78.5%
- viability, T/C [11]: 75.8%
- viability, T/C [12]: 69.6%
- viability, T/C [13]: 112%
- viability, T/C [14]: 99.1%
- viability, T/C [15]: 85.4%
- viability, T/C [16]: 79.4%
- viability, T/C [17]: 82.7%
- viability, T/C [18]: 72.7%
- viability, T/C [19]: 102%
- viability, T/C [20]: 94.9%
- viability, T/C [21]: 84.2%
- viability, T/C [22]: 84.6%
- viability, T/C [23]: 78.3%
- viability, T/C [24]: 72.6%
- viability, T/C [25]: 107%
- viability, T/C [26]: 98.4%
- viability, T/C [27]: 101%
- viability, T/C [28]: 79.8%
- viability, T/C [29]: 82.5%
- viability, T/C [30]: 73.9%
- viability, T/C [31]: 110%
- viability, T/C [32]: 103%
- viability, T/C [33]: 93.9%
- viability, T/C [34]: 90.1%
- viability, T/C [35]: 86.7%
- viability, T/C [36]: 79.3%

SMILES: O=C(c1cc(Cc2n[nH]c(=O)c3ccccc23)ccc1F)N1CCN(C(=O)C2CC2)CC1 + Cc1cccc(N(C)C(=O)C2C(O)CCN2c2nc(C)cc(C(F)(F)F)c2C#N)c1
- IC50 (second compound 0.0316 µM): > 10 µM
- IC50 (second compound 0.1 µM): > 10 µM
- IC50 (second compound 0.316 µM): > 10 µM
- IC50 (second compound 1 µM): > 10 µM
- IC50 (second compound 3.16 µM): > 10 µM
- IC50 (second compound 10 µM): > 10 µM
- viability, T/C [1]: 101%
- viability, T/C [2]: 82.3%
- viability, T/C [3]: 98%
- viability, T/C [4]: 88.1%
- viability, T/C [5]: 98.5%
- viability, T/C [6]: 92.6%
- viability, T/C [7]: 107%
- viability, T/C [8]: 92.8%
- viability, T/C [9]: 107%
- viability, T/C [10]: 95.9%
- viability, T/C [11]: 100%
- viability, T/C [12]: 101%
- viability, T/C [13]: 97.8%
- viability, T/C [14]: 94.9%
- viability, T/C [15]: 101%
- viability, T/C [16]: 96.1%
- viability, T/C [17]: 106%
- viability, T/C [18]: 93.2%
- viability, T/C [19]: 96.1%
- viability, T/C [20]: 106%
- viability, T/C [21]: 104%
- viability, T/C [22]: 96.9%
- viability, T/C [23]: 111%
- viability, T/C [24]: 106%
- viability, T/C [25]: 102%
- viability, T/C [26]: 111%
- viability, T/C [27]: 107%
- viability, T/C [28]: 91.3%
- viability, T/C [29]: 103%
- viability, T/C [30]: 111%
- viability, T/C [31]: 99.9%
- viability, T/C [32]: 98.5%
- viability, T/C [33]: 103%
- viability, T/C [34]: 93.7%
- viability, T/C [35]: 116%
- viability, T/C [36]: 109%

SMILES: O=c1[nH]cc(F)c(=O)[nH]1 + Nc1ccc(C#CCN(C(=O)Cc2ncc(C(F)(F)F)cc2C(F)(F)F)c2ccc(F)cc2)nn1
- IC50 (second compound 0.0316 µM): > 10 µM
- IC50 (second compound 0.1 µM): > 10 µM
- IC50 (second compound 0.316 µM): > 10 µM
- IC50 (second compound 1 µM): > 10 µM
- IC50 (second compound 3.16 µM): > 10 µM
- IC50 (second compound 10 µM): > 10 µM
- viability, T/C [1]: 99.2%
- viability, T/C [2]: 98.4%
- viability, T/C [3]: 92.5%
- viability, T/C [4]: 90.4%
- viability, T/C [5]: 96.4%
- viability, T/C [6]: 90.3%
- viability, T/C [7]: 104%
- viability, T/C [8]: 101%
- viability, T/C [9]: 95%
- viability, T/C [10]: 95.9%
- viability, T/C [11]: 91.2%
- viability, T/C [12]: 85.6%
- viability, T/C [13]: 104%
- viability, T/C [14]: 93.5%
- viability, T/C [15]: 96.4%
- viability, T/C [16]: 85.3%
- viability, T/C [17]: 88.2%
- viability, T/C [18]: 96.4%
- viability, T/C [19]: 104%
- viability, T/C [20]: 98.1%
- viability, T/C [21]: 98.5%
- viability, T/C [22]: 92.2%
- viability, T/C [23]: 96%
- viability, T/C [24]: 89.2%
- viability, T/C [25]: 102%
- viability, T/C [26]: 98.9%
- viability, T/C [27]: 92.8%
- viability, T/C [28]: 96.6%
- viability, T/C [29]: 95.8%
- viability, T/C [30]: 90.1%
- viability, T/C [31]: 116%
- viability, T/C [32]: 95.1%
- viability, T/C [33]: 91.1%
- viability, T/C [34]: 85.9%
- viability, T/C [35]: 93.5%
- viability, T/C [36]: 90.5%
